Tests used:
GC-B [1] = biological target: T1, GC-B (Rattus norvegicus, UniProt P16067); assay: Effect of protein phosphatase inhibitors on rapid homologous desensitization of CNP-stimulated cGMP accumulation in GH3 cells; format: cell-based; conditions: 100 nM CNP, 1 mM IBMX; 30 min pre-treatment with 100 nM OA, 1 nM cypermethrin or 1 mM Na3VO4; control = CNP alone; n = 3
T1 construct: rapid homologous desensitization of endogenous GC-B receptors in GH3 cells; endogenous in cells; host or cells: GH3 rat somatolactotrope cells
T1 sequence (P16067 17-1047): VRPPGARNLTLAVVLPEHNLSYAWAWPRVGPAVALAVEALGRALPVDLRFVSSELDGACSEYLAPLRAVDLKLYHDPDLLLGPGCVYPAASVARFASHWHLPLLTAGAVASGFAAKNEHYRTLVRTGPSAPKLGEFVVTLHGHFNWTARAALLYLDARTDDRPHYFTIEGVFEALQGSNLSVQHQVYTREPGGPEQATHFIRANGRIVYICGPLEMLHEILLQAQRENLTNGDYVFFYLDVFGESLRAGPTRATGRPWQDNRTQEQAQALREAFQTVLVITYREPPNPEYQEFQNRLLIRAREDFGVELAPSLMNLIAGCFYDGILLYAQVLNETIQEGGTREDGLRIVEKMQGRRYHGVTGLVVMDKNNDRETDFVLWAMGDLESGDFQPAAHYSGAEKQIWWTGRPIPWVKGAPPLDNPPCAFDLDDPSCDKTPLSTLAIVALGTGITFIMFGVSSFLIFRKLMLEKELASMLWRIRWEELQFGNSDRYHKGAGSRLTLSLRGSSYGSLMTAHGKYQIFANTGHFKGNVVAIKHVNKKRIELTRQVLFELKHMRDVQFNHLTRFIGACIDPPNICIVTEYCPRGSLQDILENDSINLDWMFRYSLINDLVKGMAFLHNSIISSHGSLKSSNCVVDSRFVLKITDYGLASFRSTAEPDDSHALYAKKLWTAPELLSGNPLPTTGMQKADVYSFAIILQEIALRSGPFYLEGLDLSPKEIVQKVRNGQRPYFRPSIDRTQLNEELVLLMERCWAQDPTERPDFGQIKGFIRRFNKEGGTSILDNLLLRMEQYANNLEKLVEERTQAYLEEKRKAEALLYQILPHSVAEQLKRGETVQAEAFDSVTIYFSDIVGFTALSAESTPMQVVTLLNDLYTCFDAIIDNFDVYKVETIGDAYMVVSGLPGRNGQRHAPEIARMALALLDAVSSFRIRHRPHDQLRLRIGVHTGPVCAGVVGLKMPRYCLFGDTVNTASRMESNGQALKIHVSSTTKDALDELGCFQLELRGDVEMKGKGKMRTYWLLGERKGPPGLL
Method: Fig. 2 Rapid homologous desensitization of CNP-dependent but not ANP-dependent cGMP accumulation in GH3 cells. Cells were treated with PSS containing either (a) 100 nM CNP or (b) 100 nM ANP for 0–15 min in the presence of 1 mM IBMX.
Similar short time-courses were performed, except that some cells were pre-treated with 100 nM okadaic acid (OA, a PP2A inhibitor), 1 nM cypermethrin (a PP2B inhibitor), or 1 mM sodium orthovanadate (Na3VO4, a protein tyrosine phosphatase inhibitor) for 30 min prior to CNP treatment (Fig. 2c).

GC-B [2] = biological target: T1, GC-B; assay: Effect of natriuretic peptide pre-treatment on CNP-stimulated (GC-B) cGMP accumulation in GH3 cells; format: cell-based; conditions: 100 nM CNP pre-treatment, then 100 nM CNP 15 min with IBMX; ns, P > 0.05; Fig. 3a
Method: Having established that GC-B signaling but not that of GC-A receptors, underwent rapid homologous desensitization, we next examined the effect of prolonged exposure of each receptor to its specific ligand. GH3 cells pre-treated with either ANP or CNP for 0 (control) to 6 h reduced the response to a subsequent 15-min treatment of ANP or CNP (with IBMX). […] The amount of cGMP measured from the 15-min pre-treatment sample was reduced by 39.6 ± 0.002 % (***P < 0.001). This effect was maintained up to the 6-h pre-treatment with CNP, which was reduced by 37.9 ± 7.1 % compared with the control (***P < 0.001).
Fig. 3 Effect of chronic exposure to CNP and ANP on GC-B- and GC-A-dependent cGMP accumulation in GH3 cells. Cells were initially treated with (a) 100 nM CNP or (b) 100 nM ANP in PSS without IBMX for 0 to 6 h. The medium was removed and replaced with 100 nM CNP (a) or 100 nM ANP (b) for 15 min in the presence of 1 mM IBMX. […]
In similar experiments designed to examine the effect of ANP pre-exposure to GC-A activity, a significant reduction in cGMP accumulation was observed within 30 min of ANP pre-treatment (by 28.9 ± 3.1 % compared with the control, *P < 0.05). […] In order to test the receptor specificity of the observed down-regulation of GC-B upon pre-treatment with CNP and of GC-A upon pre-treatment with ANP, the effects of ANP on GC-B and CNP on GC-A desensitization were determined. […]

Npr2 = Npr2 mRNA expression by qPCR in GH3 cells; format: cell-based, rat; conditions: 100 nM CNP, 24 h; n = 3; Fig. 4a
Method: Total RNA was extracted from 1 × 10^6 GH3 cells or from male Sprague Dawley rat pituitaries by using Tri-reagent (Sigma-Aldrich, Poole, UK) and subjected to DNase treatment (Qiagen, Manchester, UK) before generation of first-strand cDNA (Applied Biosystems, Warrington, UK). Polymerase chain reaction (PCR) was performed for a range of targets for 30 cycles by using the primers and conditions published previously (Thompson et al. [2009]). In some instances, GH3 cells were treated with 0 or 100 nM CNP for 24 h prior to RNA extraction. These samples were processed for […] PCR (qPCR) analyses with commercially available rat Npr2 and 18S primer sets (Qiagen, Manchester, UK) under standard SYBR conditions as described previously (Bayol et al. [2010]).
We next examined whether Npr2 or GC-B down-regulation (as determined by a reduction in Npr2 mRNA expression and or GC-B protein expression) mediated the inhibitory effects of sustained CNP exposure. The effect of CNP exposure on the expression of the endogenous Npr2 gene was examined by using qPCR. […]
Fig. 4 CNP fails to alter expression of Npr2 mRNA or GC-B protein in GH3 somatolactotrope cells. a GH3 cells were stimulated with 0 or 100 nM CNP for 24 h prior to extraction of total RNA, cDNA synthesis, and quantitative PCR for endogenous Npr2 expression. […]

With `CC[C@H](C)[C@@H]1NC(=O)[C@H](CCCNC(=N)N)NC(=O)[C@H](CC(=O)O)NC(=O)[C@H](CC(C)C)NC(=O)[C@H](CCCCN)NC(=O)[C@H](CC(C)C)NC(=O)CNC(=O)[C@H](Cc2ccccc2)NC(=O)[C@@H](NC(=O)CNC(=O)[C@H](CCCCN)NC(=O)[C@H](CO)NC(=O)[C@H](CC(C)C)NC(=O)CN)CSSC[C@@H](C(=O)O)NC(=O)CNC(=O)[C@H](CC(C)C)NC(=O)CNC(=O)[C@H](CO)NC(=O)[C@H](CCSC)NC(=O)[C@H](CO)NC(=O)CNC1=O` [CNP, C-type natriuretic peptide] the “rate of cGMP accumulation from 5 to 15 min (desensitization)” value (GC-B [1]) was “underwent desensitization as shown by the failure to maintain the initial rate of cGMP accumulation”, the “difference in reduction of cGMP between 15-min and 6-h pre-treatments” value (GC-B [2]) was “did not significantly differ between the 15-min to 6-h pre-treatments” and the “Npr2 mRNA expression” value (Npr2) was “failed to alter Npr2 expression in GH3 cells”.

From article PMC3921447, “Homologous and heterologous desensitization of guanylyl cyclase-B signaling in GH3 somatolactotropes” (Cell and Tissue Research, 2013)
